According to ChEMBL document CHEMBL5260810, “Inhibition of bromodomain-containing protein 9 for the prevention of epigenetically-defined drug resistance” (Bioorg Med Chem Lett, 2017):

What was measured:
[1] = test system: MKN-45; experiment: Cytotoxicity against human MKN-45 cells measured after 8 days; format: functional, cell-based; details: MKN-45, 192 h
[2] = test system: COLO-741; experiment: Cytotoxicity against human COLO-741 cells measured after 8 days; format: functional, cell-based; details: COLO-741, 192 h
[3] = biological target: 5-hydroxytryptamine receptor 4 (Homo sapiens) (UniProt Q13639); experiment: Inhibition of human 5HT4e at 10 uM relative to control
[4] = test system: Raji; experiment: Cytotoxicity against human Raji cells measured after 8 days; format: functional, cell-based; details: 192 h
[5] = test system: HCC44; experiment: Cytotoxicity against human HCC44 cells measured after 8 days; format: functional, cell-based; details: HCC44, 192 h
[6] = biological target: T1, ATPase family AAA domain-containing protein 2 (Homo sapiens, UniProt Q6PL18); experiment: Binding affinity to human partial length ATAD2A (Q981 to R1108 residues) expressed in bacterial expression system by BROMOscan assay
T1 sequence (Q6PL18 whole entry): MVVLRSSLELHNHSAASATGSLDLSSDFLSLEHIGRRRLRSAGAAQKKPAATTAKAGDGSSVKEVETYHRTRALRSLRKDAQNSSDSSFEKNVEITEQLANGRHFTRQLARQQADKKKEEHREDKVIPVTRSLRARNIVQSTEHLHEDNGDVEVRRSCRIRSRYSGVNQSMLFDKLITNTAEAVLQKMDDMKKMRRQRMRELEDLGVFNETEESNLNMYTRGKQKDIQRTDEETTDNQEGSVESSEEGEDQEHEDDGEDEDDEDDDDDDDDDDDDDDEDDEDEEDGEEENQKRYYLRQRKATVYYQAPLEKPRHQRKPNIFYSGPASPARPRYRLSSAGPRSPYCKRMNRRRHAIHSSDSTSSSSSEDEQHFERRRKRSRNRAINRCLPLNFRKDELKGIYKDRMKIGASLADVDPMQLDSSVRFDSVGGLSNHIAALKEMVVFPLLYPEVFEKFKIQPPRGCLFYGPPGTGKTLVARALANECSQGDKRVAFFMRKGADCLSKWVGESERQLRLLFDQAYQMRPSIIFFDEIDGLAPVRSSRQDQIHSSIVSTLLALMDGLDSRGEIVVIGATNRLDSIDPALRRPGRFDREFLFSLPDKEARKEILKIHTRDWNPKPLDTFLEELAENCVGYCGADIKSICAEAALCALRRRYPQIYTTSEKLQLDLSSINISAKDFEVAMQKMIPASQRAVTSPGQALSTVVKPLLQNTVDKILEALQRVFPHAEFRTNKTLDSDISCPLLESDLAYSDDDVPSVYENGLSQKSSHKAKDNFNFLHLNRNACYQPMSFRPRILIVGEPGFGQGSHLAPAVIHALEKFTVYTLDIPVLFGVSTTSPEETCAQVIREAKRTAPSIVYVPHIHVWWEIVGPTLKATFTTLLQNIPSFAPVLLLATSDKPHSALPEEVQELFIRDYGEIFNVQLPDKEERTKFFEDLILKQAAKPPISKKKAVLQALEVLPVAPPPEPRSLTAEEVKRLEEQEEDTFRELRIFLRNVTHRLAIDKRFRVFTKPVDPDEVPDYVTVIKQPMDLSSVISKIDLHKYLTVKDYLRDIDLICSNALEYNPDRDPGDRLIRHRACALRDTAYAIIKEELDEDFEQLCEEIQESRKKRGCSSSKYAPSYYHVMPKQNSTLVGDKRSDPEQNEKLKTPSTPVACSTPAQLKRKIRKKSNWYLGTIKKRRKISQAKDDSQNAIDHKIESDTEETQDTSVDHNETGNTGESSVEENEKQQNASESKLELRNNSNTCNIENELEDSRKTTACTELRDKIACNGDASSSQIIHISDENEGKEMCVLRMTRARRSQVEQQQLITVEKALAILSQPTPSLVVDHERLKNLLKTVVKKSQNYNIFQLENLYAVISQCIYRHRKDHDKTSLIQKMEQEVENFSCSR

[7] = biological target: Bromodomain-containing protein 4 (Homo sapiens, UniProt O60885); experiment: Binding affinity to BRD4 bromodomain 1/2 long isoform (unknown origin) by BROMOscan assay
[8] = Cytotoxicity against human OCI-M2 cells measured after 8 days; format: functional, cell-based; details: OCI-M2, 192 h
[9] = biological target: T2, Bromodomain-containing protein 1 (Homo sapiens, UniProt O95696); experiment: Binding affinity to human partial length BRD1 (E556 to A688 residues) expressed in bacterial expression system by BROMOscan assay
T2 sequence (O95696 whole entry): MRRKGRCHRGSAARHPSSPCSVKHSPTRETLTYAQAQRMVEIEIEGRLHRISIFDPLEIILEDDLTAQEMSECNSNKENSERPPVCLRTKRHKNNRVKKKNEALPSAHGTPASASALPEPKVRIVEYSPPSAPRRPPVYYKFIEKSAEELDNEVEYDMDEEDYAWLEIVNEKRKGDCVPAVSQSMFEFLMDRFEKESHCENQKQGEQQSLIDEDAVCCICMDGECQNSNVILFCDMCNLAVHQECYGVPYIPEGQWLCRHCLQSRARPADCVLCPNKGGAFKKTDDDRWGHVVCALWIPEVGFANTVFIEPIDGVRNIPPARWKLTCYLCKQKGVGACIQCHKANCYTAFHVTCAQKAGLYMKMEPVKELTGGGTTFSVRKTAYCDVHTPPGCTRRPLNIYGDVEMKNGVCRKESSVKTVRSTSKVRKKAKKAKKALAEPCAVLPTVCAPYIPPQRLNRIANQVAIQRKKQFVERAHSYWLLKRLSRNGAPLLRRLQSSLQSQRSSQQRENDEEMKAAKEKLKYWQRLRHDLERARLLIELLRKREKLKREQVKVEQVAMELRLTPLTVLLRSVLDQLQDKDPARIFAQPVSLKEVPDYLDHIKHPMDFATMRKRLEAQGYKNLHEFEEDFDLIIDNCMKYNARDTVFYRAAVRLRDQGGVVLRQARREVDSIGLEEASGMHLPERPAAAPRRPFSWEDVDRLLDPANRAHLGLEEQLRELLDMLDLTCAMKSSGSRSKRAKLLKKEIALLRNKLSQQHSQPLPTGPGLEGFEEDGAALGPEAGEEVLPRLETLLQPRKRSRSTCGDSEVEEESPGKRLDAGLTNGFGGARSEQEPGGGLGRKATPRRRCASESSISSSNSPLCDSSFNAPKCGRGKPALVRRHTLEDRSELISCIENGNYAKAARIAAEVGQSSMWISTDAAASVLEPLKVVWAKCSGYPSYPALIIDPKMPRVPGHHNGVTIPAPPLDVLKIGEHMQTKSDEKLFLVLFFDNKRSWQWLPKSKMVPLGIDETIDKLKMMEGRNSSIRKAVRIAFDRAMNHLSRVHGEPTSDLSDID

[10] = biological target: Serine/threonine-protein kinase pim-1 (Homo sapiens) (UniProt P11309); experiment: Inhibition of PIM1 (unknown origin) at 1 uM relative to control
Chain of Serine/threonine-protein kinase pim-1 (Homo sapiens) (P11309 whole entry, looked up): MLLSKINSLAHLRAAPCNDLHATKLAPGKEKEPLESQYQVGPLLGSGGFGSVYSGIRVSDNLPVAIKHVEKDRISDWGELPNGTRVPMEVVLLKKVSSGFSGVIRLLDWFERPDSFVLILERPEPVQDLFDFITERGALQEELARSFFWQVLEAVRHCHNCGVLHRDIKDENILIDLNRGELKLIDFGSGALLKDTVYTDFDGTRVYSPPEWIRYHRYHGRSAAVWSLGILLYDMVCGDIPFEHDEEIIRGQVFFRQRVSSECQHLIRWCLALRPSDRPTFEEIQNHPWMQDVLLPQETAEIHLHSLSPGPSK

Chain of 5-hydroxytryptamine receptor 4 (Homo sapiens) (Q13639 whole entry): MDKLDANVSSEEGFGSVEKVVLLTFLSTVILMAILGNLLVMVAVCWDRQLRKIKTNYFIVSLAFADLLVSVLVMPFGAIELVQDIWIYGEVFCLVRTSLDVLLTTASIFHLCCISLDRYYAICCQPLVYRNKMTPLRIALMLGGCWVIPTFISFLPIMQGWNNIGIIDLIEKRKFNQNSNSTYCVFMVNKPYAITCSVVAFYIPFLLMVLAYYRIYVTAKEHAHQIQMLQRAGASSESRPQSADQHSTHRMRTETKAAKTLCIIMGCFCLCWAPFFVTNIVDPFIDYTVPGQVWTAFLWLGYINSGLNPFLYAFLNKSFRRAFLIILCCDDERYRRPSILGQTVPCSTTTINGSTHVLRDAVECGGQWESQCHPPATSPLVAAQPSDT

SMILES	IC50 [1]	IC50 [2]	inhibition [3]	IC50 [4]	IC50 [5]	Kd [6]	Kd [7]	IC50 [8]	Kd [9]	inhibition [10]
C/C=C/Cn1cc(-c2ccc(C(=O)N3CCOCC3)cc2)c2cc[nH]c2c1=O	20 µM	20 µM	2%	20 µM	20 µM	> 10 µM	8.8 µM	5.21 µM	> 10 µM	-3.4%
C/C=C/Cn1cc(-c2ccc(C(C)(C)O)cc2OC)c2cc[nH]c2c1=O	20 µM	20 µM	-1%	12.4 µM	20 µM	> 10 µM	1.7 µM	20 µM	> 10 µM	0.5%
C/C=C/Cn1cc(-c2cc(OC)c(C(=O)N3CCOCC3)cc2OC)c2cc(C)[nH]c2c1=O	2 µM	2 µM	-8%	2 µM	2 µM	> 10 µM	> 10 µM	2 µM	> 10 µM	2%
C/C=C/Cn1cc(-c2cc(OC)c(C(C)(C)O)cc2OC)c2cc(C)[nH]c2c1=O	–	–	–	–	–	9.3 µM	> 10 µM	–	> 10 µM	–
